From EP3360891B1, “CELL PENETRATING PEPTIDES OF HUMAN ORIGIN” (Karlsruher Institut für Technologie, priority 2017, dated 2018) come the findings set out here.

Data set [1] in a line: Cytotoxicity on HaCaT keratinocytes, MTT assay. To be noted: human. On the procedure:
Said cells (7000 cells per well) were seeded in 96-well plate and were allowed to grow overnight in standard growth medium containing FBS. On the next day, the medium was discarded and the cells were washed thrice with phosphate buffered saline and incubated with the peptides at 10µM, 25µM, 50µM and 100µM in culture medium without FBS for 24 h at 37°C, 5% CO2. On the following day the cells were washed again with phosphate buffered saline. MTT reagent was added to cells at a final concentration of 1mg/ml in phosphate buffered saline and incubated for 2-4 h at 37°C, 5% CO2. Addition of MTT to the said cells yielded purple formazan crystals that were dissolved by addition of DMSO and the absorbance was measured at 570 nm.
(In general: Tetrazolium dyes change colour on reduction, which living cells bring about.)

Data set [2] relates to HaCaT keratinocyte cell line. In words: Cellular uptake into HaCaT keratinocytes, flow cytometry. It counts as cell-based, human. To be noted: for cellular translocation: 25µM carboxyfluorescein labeled peptide, 1 h, 37°C, medium without FBS, mean of six measurements; for cell uptake in comparison to SSL-25: 1 h incubation at a concentration of 25µM. On the procedure: Cells (20,000 cells per well) were seeded in 24-well plates and allowed to grow in standard growth medium containing Fetal Bovine Serum (FBS) overnight to attain a confluency of 70%. On the following day, the medium was discarded and cells were washed with phosphate buffered saline. Subsequently the peptide was added at a final concentration of 25µM in culture medium without FBS. The cells were incubated with the peptides labeled with carboxyfluorescein at the N-terminus at 37°C, 5% CO2 for 1 h in the dark. Following incubation of the cells with the peptides, the cells were washed three times with phosphate buffered saline. Subsequently, the cells were trypsinized using 0.25% Trypsin-EDTA for 10 min at 37°C, 5% CO2 to allow the protease dependent degradation of adsorbed surface bound peptides and to allow the detachment of cells from the 24-well plate for further analysis.
The cellular uptake of peptides was assessed by flow cytometry. 5000 events per sample were recorded and analyzed in the flow cytometer. A mean of six measurements was plotted with standard deviations being represented by error bars. […] These peptides translocate in HaCaT cells more efficiently as compared to SSL-25 (31%), SSL-9 E5A D9K (28%) and SSL-9 E5K D9K (22%).
A general note: Flow cytometry measures light scatter and fluorescence of single cells or particles in a stream.

A further data set has as its system human erythrocytes. As to conditions: human erythrocytes 0.25 % hematocrit, 37 °C, 30 minutes, 2-fold dilutions from 1024 µM stock, relative to Triton X-100 lysis.
Data set [3] in a line: Translocation into lipid vesicles (encapsulated chymotrypsin, Gly-Gln-Phe-Coumarin tag, method of Marks et al.). To be noted: after 10 min, without Zn2+ ions, Figure 4B. From the text: Wimley, Spontaneous Membrane-Translocating Peptides by Orthogonal High-Throughput Screening, J Am Chem Soc, 133 (2011) 8995-9004].
In this method, the sequence Gly-Gln-Phe-Coumarin is C-terminally coupled to the peptides. Chymotrypsin is encapsulated in the vesicles, and this enzyme cuts the peptide between phenylalanine and coumarin. If accordingly labeled peptides penetrate into the vesicles, Chymotrypsin acts and cleaves the Phe-Coumarin bond which sets the coumarin free and causes a bathochromic shift of the fluorescence maximum of about 50 nm. which can be determined fluorimetrically.
Large unilamellar vesicles consisting of POPC / POPG 25:75 (mol:mol) were used in a concentration of 100 µM in buffer without or with 100 µM ZnSO4. […]

Ends that are not written are not given here. Peptide text beside a SMILES is read from it. * marks the point of attachment. 5FAM = O=C1OC2(c3ccc(O)cc3Oc3cc(O)ccc32)c2ccc(C(=O)*)cc21

Protocol for human erythrocytes: A concentrated solution of human erythrocytes was adjusted to a hematocrit of 0.5% by repeated washing with buffer solution (172 mM Tris-HCI, pH 7.6) and this diluted solution was equilibrated to 37 °C in a water bath.
The peptides were prepared as a 1024 µM stock solutions in buffer, added to the erythrocytes in sequential 2-fold dilutions and incubated at 37 °C for 30 minutes with occasional shaking.
The cells were centrifuged and the released hemoglobin in the supernatant was quantified using spectrophotometry. The obtained values were set in reference to the value obtained by complete lysis of all cells upon addition of Triton™ X-100.

As a reminder, the viability is a read-out of living cells in per cent, often relative to untreated cells. On to `CC(C)C[C@H](NC(=O)CNC(=O)[C@H](CCCCN)NC(=O)[C@H](CCCCN)NC(=O)[C@H](CC(C)C)NC(=O)[C@H](CC(C)C)NC(=O)[C@H](CO)NC(=O)[C@H](CO)NC(=O)c1ccc2c(c1)C(=O)OC21c2ccc(O)cc2Oc2cc(O)ccc21)C(=O)N[C@@H](C)C(=O)O` [SSL-9 E5K D9A] (5FAM-SSLLKKGLA-OH; N-terminus and C-terminus assumed), for which the viability at 24 h, 100 µM in data set [1] is 70%. In data set [2], the cellular translocation came out at 81.7% and the “cell uptake in comparison to SSL-25” value was “higher cell uptake in comparison to SSL-25”.
On to “SSLLEKGLDGAKKAVGGLGKLGKDAVEDLESVGKGAVHDVKDVLDSVL [DCD-1L, SSLLEKGLDGAKKAVGGLGKLGKDAVEDLESVGKGAVHDVKDVLDSVL]”, for which, in the data set with human erythrocytes, the hemolysis result is “no hemolysis”.
Regarding `CC(C)C[C@H](NC(=O)CNC(=O)[C@H](CCCCN)NC(=O)[C@H](CCC(=O)O)NC(=O)[C@H](CC(C)C)NC(=O)[C@H](CC(C)C)NC(=O)[C@H](CO)NC(=O)[C@H](CO)NC(=O)c1ccc2c(c1)C(=O)OC21c2ccc(O)cc2Oc2cc(O)ccc21)C(=O)N[C@@H](C)C(=O)NCC(=O)N[C@@H](C)C(=O)N[C@@H](CCCCN)C(=O)N[C@@H](CCCCN)C(=O)O` [SSL-13 D9A, SSLLEKGLAG AKK] (5FAM-SSLLEKGLAGAKK-OH; N-terminus and C-terminus assumed), the viability at 24 h, 100 µM in data set [1] (HaCaT keratinocytes) was 70%. In data set [2], the cellular translocation was found to be 81.5% and the “cell uptake in comparison to SSL-25” value was “higher cell uptake in comparison to SSL-25”.
`CC(C)C[C@H](NC(=O)CNC(=O)[C@H](CCCCN)NC(=O)[C@H](CCC(=O)O)NC(=O)[C@H](CC(C)C)NC(=O)[C@H](CC(C)C)NC(=O)[C@H](CO)NC(=O)[C@H](CO)NC(=O)c1ccc2c(c1)C(=O)OC21c2ccc(O)cc2Oc2cc(O)ccc21)C(=O)N[C@@H](CC(=O)O)C(=O)O` [SSL-9, SSLLEKGLD] (5FAM-SSLLEKGLD-OH; N-terminus and C-terminus assumed): the viability at 24 h, 100 µM in data set [1] stood at 70%. In data set [2], the cellular translocation came to 50% and the “cell uptake in comparison to SSL-25” value is “higher cell uptake in comparison to SSL-25”. In data set [3], the extent of translocation entry was “reduced translocation”.
The compound `CC(C)C[C@H](NC(=O)CNC(=O)[C@H](CCCCN)NC(=O)[C@H](CCC(=O)O)NC(=O)[C@H](CC(C)C)NC(=O)[C@H](CC(C)C)NC(=O)[C@H](CO)NC(=O)[C@H](CO)NC(=O)c1ccc2c(c1)C(=O)OC21c2ccc(O)cc2Oc2cc(O)ccc21)C(=O)N[C@@H](CC(=O)O)C(=O)NCC(=O)N[C@@H](C)C(=O)N[C@@H](CCCCN)C(=O)N[C@@H](CCCCN)C(=O)O` [SSL-13, SSLLEKGLDG AKK] (5FAM-SSLLEKGLDGAKK-OH) had a viability at 24 h, 100 µM in data set [1] of 70%. Moreover, in data set [2], the cellular translocation turned out to be 48% and the “cell uptake in comparison to SSL-25” value is reported as “higher cell uptake in comparison to SSL-25”. Also, the extent of translocation result in data set [3] was “able to penetrate lipid membranes very efficiently”.
The compound `CC(C)C[C@H](NC(=O)CNC(=O)[C@H](CCCCN)NC(=O)[C@H](CCC(=O)O)NC(=O)[C@H](CC(C)C)NC(=O)[C@H](CC(C)C)NC(=O)[C@H](CO)NC(=O)[C@H](CO)NC(=O)c1ccc2c(c1)C(=O)OC21c2ccc(O)cc2Oc2cc(O)ccc21)C(=O)N[C@@H](CC(=O)O)C(=O)NCC(=O)N[C@@H](C)C(=O)O` [SSL-11, SSLLEKGLDG A] (5FAM-SSLLEKGLDGA-OH; N-terminus and C-terminus assumed) came in with a viability at 24 h, 100 µM in data set [1] (HaCaT keratinocytes) of 70%. Also, in data set [2], the cellular translocation is on record as 70% and the “cell uptake in comparison to SSL-25” value is “higher cell uptake in comparison to SSL-25”. For the same compound, the extent of translocation entry in data set [3] is listed as “reduced translocation”.
The compound `CC(C)C[C@H](NC(=O)CNC(=O)[C@H](CCCCN)NC(=O)[C@H](C)NC(=O)[C@H](CC(C)C)NC(=O)[C@H](CC(C)C)NC(=O)[C@H](CO)NC(=O)[C@H](CO)NC(=O)c1ccc2c(c1)C(=O)OC21c2ccc(O)cc2Oc2cc(O)ccc21)C(=O)N[C@@H](CCCCN)C(=O)O` [SSL-9 E5A D9K] (5FAM-SSLLAKGLK-OH; N-terminus and C-terminus assumed) registered a viability at 24 h, 100 µM in data set [1] (HaCaT keratinocytes) of 70%. In data set [2], the cellular translocation came to 28% and the “cell uptake in comparison to SSL-25” value was “reduced but comparable uptake”.
`CC(C)C[C@H](NC(=O)CNC(=O)[C@H](CCCCN)NC(=O)[C@H](CCCCN)NC(=O)[C@H](CC(C)C)NC(=O)[C@H](CC(C)C)NC(=O)[C@H](CO)NC(=O)[C@H](CO)NC(=O)c1ccc2c(c1)C(=O)OC21c2ccc(O)cc2Oc2cc(O)ccc21)C(=O)N[C@@H](CCCCN)C(=O)O` [SSL-9 E5K D9K] (5FAM-SSLLKKGLK-OH; N-terminus and C-terminus assumed): the viability at 24 h, 100 µM in data set [1] is 70%. Moreover, in data set [2], the cellular translocation is on record as 22% and the “cell uptake in comparison to SSL-25” value is “reduced but comparable uptake”.
